Structures can show the parent of a compound that is named as a salt. Values belong to the compound of their own block, whether it stands above or below them.
What was measured:
Type in all cases: physicochemical
[1] = Hygroscopicity from DVS sorption/desorption isotherms; details: for weight gain due to water absorption (DVS): listed as hydrochloride salt
Method: Hygroscopicity was measured from sorption/desorption isotherms using Surface Measurement System DVS-1 at 25±0.5° C. Samples were evaluated at various humidities including 75%, 85%, and 95%.
The free base (anhydrous and monohydrate) and its phosphate salt (form A) were subjected to sorption and desorption cycle using a VTI brand instrument. The solids were collected after the experiment and analyzed. […] The DVS plots are shown in FIGS. 4A (free base, anhydrous), 4B (phosphate salt (form A) and 4C (free base, monohydrate). The maximum water uptake for the phosphate salt (form A) was less than 2% (i.e. 0.7%) at 25° C. up to 95% relative humidity (rh) (see Table 9). The maximum water uptake for the monohydrate was less than 1.4% at 25° C. up to 95% RH. The monohydrate with an approximate water content of 3% could not be completely dried during the experiment but the water that could be removed was reversibly reabsorbed. The plateau of existence of the monohydrate form is found to be within 10% and 95% RH with a slight hysteresis at the second desorption cycle.

[2] = Determination of solubility (equilibration in solvent, filtrate by HPLC); details: for Solubility: initial solubility test
Method: Excess free base (free base of Formula I), its phosphate salt (the monophosphoric acid salt of the free base), or another acid salt was equilibrated in solvents for 1 day at 25±0.5° C. The resultant slurry was filtered and the filtrate used for solubility determination by HPLC.
Solubility of the monohydrate of the anhydrous and monohydrate free base was measured in various aqueous media (e.g., pH 6.8 buffer, pH 4.5 buffer, pH 1 buffer), including simulated and actual human fluids.
The human fluids were collected from 12 human subjects.
Solubility studies of the phosphate salt were undertaken in aqueous media and in human fluids at 24 hours.

[3] = Intrinsic dissolution rate; details: 37° C., disc 50 rpm, 290.2 nm
Method: The intrinsic dissolution rate measurements were carried out in 0.5 cm^2 VanKel punch and die assemblies at a pellet pressure of 2000 pounds. […]
The intrinsic dissolution rate was determined for the phosphate salt in water, pH=6.8 and 0.1N HCl, and for the free base monohydrate in pH=6.8, 4.5 and 0.1N HCl. The measurements were carried out on a VanKel instrument using a Cary UV/VIS spectrophotometer (Table 2).

maximum water uptake ([1]; 25° C. up to 95% relative humidity): less than 1.4%
Solubility in mg/ml after 24 h ([2]; Fasted State Simulated Intestinal Fluid (FaSSIF), listed as Monohydrate Free Base): 0.003 mg/mL
Solubility in mg/ml after 24 h ([2]; Fed State Simulated Intestinal Fluid (FeSSIF), listed as Monohydrate Free Base): 0.459 mg/mL
Solubility in mg/ml after 24 h ([2]; HIF, fed, listed as Monohydrate Free Base): 0.040 mg/mL
Solubility in mg/ml after 24 h ([2]; Human gastric fluid (HGF), listed as Monohydrate Free Base): 0.002 mg/mL
Solubility in mg/ml after 24 h ([2]; Human intestinal fluid (HIF) fasted, listed as Monohydrate Free Base): 0.019 mg/mL
Solubility in mg/ml after 24 h ([2]; Simulated Gastric Fluid (SGF), listed as Monohydrate Free Base): 0.020 mg/mL
Solubility in mg/ml after 24 h ([2]; pH 1 HCl, listed as Monohydrate Free Base): 0.103 mg/mL
Solubility in mg/ml after 24 h ([2]; ph 4.5 Acetate, listed as Monohydrate Free Base): 0.054 mg/mL
Intrinsic DR value ([3]; HCl 0.1N): 0.3132 mg/min/cm^2
Intrinsic DR value ([3]; pH = 4.5): 0.0001 mg/min/cm^2
Intrinsic DR value ([3]; pH = 6.8): 0.0026 mg/min/cm^2
Compound: CCN1CCN(c2ccc(Nc3cc(N(C)C(=O)Nc4c(Cl)c(OC)cc(OC)c4Cl)ncn3)cc2)CC1 [Free base (monohydrate)]

weight gain due to water absorption (DVS) ([1]; 75% RH): about 4.1%
weight gain due to water absorption (DVS) ([1]; 95% RH): about 16.9%
hygroscopicity (in words) ([1]; listed as hydrochloride): hygroscopic
Solubility in mg/ml after 24 h ([2]; Fasted State Simulated Intestinal Fluid (FaSSIF)): 0.003 mg/mL
Solubility in mg/ml after 24 h ([2]; Fed State Simulated Intestinal Fluid (FeSSIF)): 0.248 mg/mL
Solubility in mg/ml after 24 h ([2]; HIF, fed): 0.0109 mg/mL
Solubility in mg/ml after 24 h ([2]; Human gastric fluid (HGF)): 0.0348 mg/mL
Solubility in mg/ml after 24 h ([2]; Human intestinal fluid (HIF) fasted): 0.0154 mg/mL
Solubility in mg/ml after 24 h ([2]; Simulated Gastric Fluid (SGF)): 0.073 mg/mL
Solubility in mg/ml after 24 h ([2]; pH 1 HCl): 0.075 mg/mL
Solubility in mg/ml after 24 h ([2]; ph 4.5 Acetate): 0.822 mg/mL
Compound: CCN1CCN(c2ccc(Nc3cc(N(C)C(=O)Nc4c(Cl)c(OC)cc(OC)c4Cl)ncn3)cc2)CC1 [Hydrochloride Salt]

weight gain by DVS ([1]; over the humidities tested (75%, 85%, 95% RH)): about 10%
Compound: Malonate

Compound: Methanesulfonate
Solubility ([2]; Water): 870 µg/mL
Solubility ([2]; pH3 Buffer): 3 µg/mL

— patent publication US9067896B2, “Crystalline forms of 3-(2,6-dichloro-3,5-dimethoxy-phenyl)-1-{6-[4-(4-ethyl-piperazin-1-yl) -phenylamino]-pyrimidin-4-yl}-1-methyl-urea and salts thereof” (Novartis AG, priority 2009, dated 2015)
